PMC11677465, “Development of a PET Probe Targeting Bromodomain and Extra-Terminal Proteins for In Vitro and In Vivo Visualization” (Pharmaceuticals, 2024)

Molecular target: T1, BRD4 (Homo sapiens, UniProt O60885)
T1 construct: BD1 (BRD4(1), first bromodomain)
Assay: BROMOscan bromodomain competition binding assay with qPCR readout

Kd: 480 nM
Compound: COc1cc2c(cc1-c1c(C)nn(C)c1C)ncc1nc(C)n([C@H](C)c3ccccc3)c12 [YL10, (R)-8-methoxy-2-methyl-1-(1-phenylethyl)-7-(1,3,5-trimethyl-1H-pyrazol-4-yl)-1H-imidazo[4,5-c]quinoline]
